The subject of experiment [1] is Recombinant human c-Cbl (aa 47-435). Kind of experiment: c-Cbl Biochemical Assay (TR-FRET). The note with it: ratio from the Cbl-b and c-Cbl TR-FRET biochemical assays. Here is the method: c-Cbl Biochemical Assay (TR-FRET)
Recombinant human c-Cbl (aa 47-435) was expressed in E coli, purified and biotinylated in vitro. The protein was diluted to 12 nM in freshly prepared assay buffer consisting of 50 mM HEPES, pH 7.0, 100 mM NaCl, 5 mM MgCl2, 0.01% Triton-X 100, 0.01% BSA and 1 mM DTT. Recombinant human Src (aa 254-536)-GSSGSS-Zap-70 (aa 281-297) fusion protein was expressed in E coli and purified. Protein was diluted in assay buffer to 5-20 nM and ATP was added to 1 mM. Recombinant human UBE2D2(C85K) was expressed in E coli, purified and ubiquitinated and Bodipy labelled in vitro. Protein was diluted to 200 nM in assay buffer without MgCl2 (or Cisbio PPI buffer). Streptavidin-Terbium was added to 2 nM and EDTA to 10 mM, to provide a binding assay mix. Compounds were dissolved in DMSO and diluted to prepare a ten-point half log dilution series. 100 nl of each compound concentration was dispensed in duplicate in a 384 well black assay plate using acoustic dispensing. Wells for maximum signal controls received 100 nl of DMSO only and wells for minimum controls received 100 nl of a reference inhibitor compound at a final assay concentration of 100 mM to produce 100% inhibition. 5 μl of diluted c-Cbl enzyme was added to all wells of the assay plate and incubated at RT for 30 min. The enzyme assay was initiated by addition of 5 d of Src-Zap/ATP mix to all wells, and the plate incubated at RT for 60-90 min. The enzyme reaction was terminated and the binding reaction was initiated by adding 10p of binding assay mix to all wells and incubating the plate at RT for 60 min prior to assay read. Final assay conditions consisted of 6 nM c-Cbl. 2.5-10 nM Src-Zap70, 0.5 mM ATP. 1% (v/v) DMSO (enzyme reaction) and 100 nM UBE2D2(C85K)-Ub-FL-BODIPY, 5 mM EDTA, 1 nM Streptavidin-Tb (binding reaction). The HTRF assay signal was measured at 520 nm on an Envision plate reader, with reference signal at 485 or 620 nm. Data was normalized using maximum and minimum assay controls: % Inhibition=100−(100*((maximum control)−unknown)/(maximum control−minimum control)). A 4-parameter dose-response equation was used to fit the normalized dose-response data and derive an IC50 for test compounds.
A general note: Time-resolved FRET reads energy transfer from a long-lived donor to a nearby acceptor.

For experiment [2], the target named is T1, Recombinant human Cbl-b (aa 36-427) (Homo sapiens, UniProt Q13191).
T1 construct: Recombinant human Cbl-b (aa 36-427) was expressed in E coli; biotin (biotinylated in vitro); made in house; host or cells: E. coli
Kind of experiment: Cbl-b Biochemical Assay (TR-FRET). The note with it: 6 nM Cbl-b, 1-2.5 nM Src-Zap70, 0.5 mM ATP; HTRF signal at 520 nm. As to the method: Cbl-b Biochemical Assay (TR-FRET)
Recombinant human Cbl-b (aa 36-427) was expressed in E coli, purified and biotinylated in vitro. The protein was diluted to 12 nM in freshly prepared assay buffer consisting of 50 mM HEPES, pH 7.0, 100 mM NaCl, 5 mM MgCl2, 0.01% Triton-X 100, 0.01% BSA and 1 mM DTT. Recombinant human Src (aa 254-536)-GSSGSS-Zap-70 (aa 281-297) fusion protein was expressed in E coli and purified. Protein was diluted in assay buffer to 2-5 nM and supplemented with ATP to 1 mM. Fluorescein-BODIPY labeled UBED2D(C85K)-Ub was prepared by conjugating ubiquitin (Ub) labeled at its N-terminus with Fluorescein-BODIPY maleimide (ThermoFisher Catalog no B10250) to E coli expressed and purified UBED2D(C85K) [see Dou et al Nature Structural and Molecular Biology 8: 982-987, 2013]. Recombinant human UBE2D2(C85K) was expressed in E coli, purified and ubiquitinated and Bodipy labelled in vitro. Protein was diluted to 200 nM in assay buffer without MgCl2 (or Cisbio PPI buffer). Streptavidin-Terbium was added to 2 nM and EDTA to 10 mM, to provide a binding assay mix. Compounds were dissolved in DMSO and diluted to prepare a ten-point dilution series. 100 nl of each compound concentration was dispensed in duplicate in a 384 well black assay plate using acoustic dispensing. Wells for maximum signal controls received 100 nl of DMSO only and wells for minimum signal controls received 100 nl of a reference inhibitor compound at a final assay concentration of 100 mM to produce 100% inhibition. 5 μl of diluted Cbl-b enzyme was added to all wells of the assay plate and incubated at RT for 30-60 min. The enzyme assay was initiated by addition of 5 μl of Src-Zap/ATP mix to all wells, and the plate incubated at RT for 60 min. The enzyme reaction was terminated and the binding reaction was initiated by adding 10p of binding assay mix to all wells and incubating the plate at RT for 60 min prior to assay read. Final assay conditions consisted of 6 nM Cbl-b, 1-2.5 nM Src-Zap70, 0.5 mM ATP, 1% (v/v) DMSO (enzyme reaction) and 100 nM UBE2D2(C85K)-Ub-FL-BODIPY, 5 mM EDTA, 1 nM Streptavidin-Tb (binding reaction). The HTRF assay signal was measured at 520 nm on an Envision plate reader, with reference signal at 485 or 620 nm. Data was normalized using maximum and minimum assay controls: % Inhibition=100−(100*((maximum control)−unknown)/(maximum control−minimum control)). A 4-parameter dose-response equation was used to fit the normalized dose-response data and derive an IC50 for test compounds.

T1 sequence (Q13191 36-427): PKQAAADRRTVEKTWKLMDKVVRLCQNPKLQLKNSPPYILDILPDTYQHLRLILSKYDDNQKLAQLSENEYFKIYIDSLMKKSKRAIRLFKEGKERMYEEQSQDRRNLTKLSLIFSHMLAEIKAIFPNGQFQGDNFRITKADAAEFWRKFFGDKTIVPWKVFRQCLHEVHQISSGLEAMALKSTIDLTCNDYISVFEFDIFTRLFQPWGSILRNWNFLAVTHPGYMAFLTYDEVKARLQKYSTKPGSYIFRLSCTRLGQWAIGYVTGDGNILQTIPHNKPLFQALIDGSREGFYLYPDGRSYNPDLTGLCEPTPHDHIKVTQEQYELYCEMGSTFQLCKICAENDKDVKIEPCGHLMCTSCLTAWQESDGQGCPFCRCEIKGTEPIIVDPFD

Take `CO[C@H]1CCCN(Cc2cc(C(F)(F)F)c3oc(-c4cccc([C@]5(c6nncn6C)C[C@@H](C)C5)c4)nc3c2)C1` [I-6, 5-{1[(3S)-3-Methoxypiperidin-1-yl]methyl}-2-{3-[(1r,3s)-3-methyl-1-(4-methyl-1,2,4-triazol-3-yl)cyclobutyl]phenyl}-7-(trifluoromethyl)-1,3-benzoxazole]: the “Cbl-b/c-Cbl Selectivity” value in experiment [1] turned out to be 10. Moreover, the IC50 in experiment [2] lay within 200 to 5000 nM.
Regarding `CCNc1cc(-c2cc(C#N)ccc2-c2nncn2C)cc(-c2nc3cc(CNCC4(C#N)CCCC4)cc(C(F)(F)F)c3o2)n1` [I-4], the “Cbl-b/c-Cbl Selectivity” value in experiment [1] was 8. Besides, in experiment [2], the IC50 lay within 200 to 5000 nM.
`Cn1cnnc1-c1cc(F)ccc1-c1cc(NC[C@@H](O)CC#N)nc(-c2nc3cc(CN4CCC5(CC5)C4)cc(C(F)(F)F)c3o2)c1` [I-29]: in experiment [1], the “Cbl-b/c-Cbl Selectivity” value came to 14. Moreover, in experiment [2], the IC50 was under 200 nM.
On to `C[C@H]1CCCN(Cc2cc(C(F)(F)F)c3oc(-c4cccc([C@H](c5nncn5C)[C@H]5C[C@H](C(F)(F)F)C5)c4)nc3c2)C1` [I-57], for which the “Cbl-b/c-Cbl Selectivity” value in experiment [1] is reported as 2. For the same compound, the IC50 in experiment [2] is over 5000 nM.
For `C[C@H]1CCCN(Cc2cc(C(F)(F)F)c3oc(-c4cccc([C@H](c5nncn5C)[C@H]5C[C@@H](C(F)(F)F)C5)c4)nc3c2)C1` (single isomer, unassigned) [I-59], the “Cbl-b/c-Cbl Selectivity” value in experiment [1] amounted to 19. Moreover, in experiment [2], the IC50 was under 200 nM.
As for `CC(C)NCc1cc(C(F)(F)F)c2oc(-c3cccc([C@]4(c5nncn5C)C[C@@H](C)C4)c3)nc2c1` [I-5, Isopropyl[(2-{3-[(1r,3s)-3-methyl-1-(4-methyl-1,2,4-triazol-3-yl)cyclobutyl]phenyl}-7-(trifluoromethyl)-1,3-benzoxazol-5-yl)methyl]amine], the “Cbl-b/c-Cbl Selectivity” value in experiment [1] amounted to 12. Also, the IC50 in experiment [2] was 200 to 5000 nM.
For the compound `Cn1cnnc1-c1ccc(C#N)cc1-c1cc(NC[C@@H](O)CC#N)nc(-n2cc3c(C(F)(F)F)cc(CN4CCC5(CCC5)C4)cn3c2=O)c1` [I-50, (S)-3-(2-(6-((6-Azaspiro[3.4]octan-6-yl)methyl)-3-oxo-8-(trifluoromethyl)imidazo[1,5-a]pyridin-2(3H)-yl)-6-((3-cyano-2-hydroxypropyl)amino)pyridin-4-yl)-4-(4-methyl-4H-1,2,4-triazol-3-yl)benzonitrile], the “Cbl-b/c-Cbl Selectivity” value in experiment [1] came to 21. Moreover, in experiment [2], the IC50 was under 200 nM.
With `C[C@H]1CCCN(Cc2cc(C(F)(F)F)c3oc(-c4cccc([C@@H](c5nncn5C)C5COC5)c4)nc3c2)C1` [I-53], the “Cbl-b/c-Cbl Selectivity” value in experiment [1] amounted to 1. The IC50 in experiment [2] was over 5000 nM.
Regarding `Cn1cnnc1-c1ccc(C#N)cc1-c1cc(NCCC#N)nc(-c2nc3cc(CN4CCC5(CC5)C4)cc(C(F)(F)F)c3o2)c1` [I-16, 3-[2-(5-{5-azaspiro[2.4]heptan-5-ylmethyl}-7-(trifluoromethyl)-1,3-benzoxazol-2-yl)-6-[(2-cyanoethyl)amino]pyridin-4-yl]-4-(4-methyl-1,2,4-triazol-3-yl)benzonitrile], the “Cbl-b/c-Cbl Selectivity” value in experiment [1] was 7. In experiment [2], the IC50 is 200 to 5000 nM.

As a reminder, the IC50 is the concentration that inhibits the measured activity by half.
